Several values for one entry are separate records, joined by “and”; a condition that tells them apart may be missing. Equal values may be shown once.
Experiments:
Assay type in all cases: cell-based
[1] = molecular target: T1, human GPR119 (Homo sapiens, UniProt Q8TDV5); experiment: β-Arrestin PathHunter assay (U2OS hGPR119 β-arrestin cells); details: for Emax: U2OS, read-out: Intrinsic Activity (Human B-arrestin)
T1 sequence (Q8TDV5 1-335): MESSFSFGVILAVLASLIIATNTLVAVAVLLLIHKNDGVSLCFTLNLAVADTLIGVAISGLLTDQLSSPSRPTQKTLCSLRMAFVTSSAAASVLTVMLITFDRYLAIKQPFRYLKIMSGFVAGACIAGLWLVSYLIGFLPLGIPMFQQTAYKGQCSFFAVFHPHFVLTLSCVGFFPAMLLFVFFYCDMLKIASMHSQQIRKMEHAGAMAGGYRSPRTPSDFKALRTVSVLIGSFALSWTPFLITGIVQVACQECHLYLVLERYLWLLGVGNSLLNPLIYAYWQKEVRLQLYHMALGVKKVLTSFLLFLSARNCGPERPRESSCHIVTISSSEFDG
Procedure: GPR119 agonist activity was also determined with a cell-based assay utilizing DiscoverX PathHunter β-arrestin cell assay technology and their U2OS hGPR119 β-arrestin cell line (DiscoverX Cat # 93-0356C3). In this assay, agonist activation is determined by measuring agonist-induced interaction of β-arrestin with activated GPR119. A small, 42 amino acid enzyme fragment, called ProLink was appended to the C-terminus of GPR119. Arrestin was fused to the larger enzyme fragment, termed EA (Enzyme Acceptor). Activation of GPR119 stimulates binding of arrestin and forces the complementation of the two enzyme fragments, resulting in formation of a functional β-galactosidase enzyme capable of hydrolyzing substrate and generating a chemiluminescent signal.
Specifically, U2OS hGPR119 β-arrestin cells (DiscoverX 1×10^7/mL) are removed from cryopreservation and diluted in growth medium (Minimum essential medium (MEM; Gibco Cat # 11095-080), 10% heat inactivated fetal bovine serum (HIFBS; Sigma Cat # F4135-100), […] sodium pyruvate (Sigma Cat # S8636), 500 microg/mL G418 (Sigma Cat # G8168) and 250 microg/mL Hygromycin B (Invitrogen Cat # 10687-010). The cell concentration was adjusted to 1.66×10^5 cells/mL and 30 mLs of this suspension was added to a T-175 flask and incubated at 37 degrees Celsius in a humidified environment in 5% carbon dioxide. After 24 hours, the cells were removed from the T-175 flask with enzyme-free cell dissociation buffer (Gibco cat #13151-014), centrifuged at 800×g and then re-suspended in plating medium (Opti-MEM I (Invitrogen/BRL Cat # 31985-070) and 2% charcoal dextran treated fetal bovine serum (CD serum; HyClone Cat # SH30068.03).
The cell concentration was adjusted to 2.5×10^5 cells/mL with plating medium and 20 microliters of this cell suspension (5000 cells) was added to each well of a white Greiner 384-well low volume assay plate (VWR cat #82051-458) and the plates were incubated at 37 degrees Celsius in a humidified environment in 5% carbon dioxide.
After 16 hours (overnight) the assay plates were removed from the incubator and varying concentrations of each compound to be tested (diluted in assay buffer (1×HBSS+CaCl2+MgCl2 (Gibco Cat # 14025-092), 20 mM HEPES pH 7.0 (Gibco Cat # 15630-080) and 0.1% BSA (Sigma Cat # A9576)) were added to the assay plate wells in a volume of 5 microliters (final DMSO concentration was 0.5%). After a 90 minute incubation at 37 degrees Celsius in a humidified environment in 5% carbon dioxide, 12 microliters of Galacton Star β-galactosidase substrate (PathHunter Detection Kit (DiscoveRx Cat # 93-0001); prepared as described in the manufacturers assay protocol) was added to each well of the assay plate. The plates were incubated at room temperature and after 60 minutes, changes in the luminescence were read with an Envision 2104 multilabel plate reader at 0.1 seconds per well. EC50 determinations were made from an agonist-response curves analyzed with a curve fitting program using a 4-parameter logistic dose response equation.

[2] = molecular target: T1, human GPR119; experiment: cAMP HTRF functional assay (hGPR119 HEK-CRE beta-lactamase cells); set-up: host or cells: HEK293-CRE beta-lactamase; details: for Intrinsic Activity (Human cAMP) / Emax: percent of maximal activity relative to standard GPR119 agonist at 10 micromolar; for Emax: read-out: Intrinsic Activity (Human cAMP); for EC50: HTRF cAMP, 30 min, 400 microM IBMX, each line a separate determination
Procedure: GPR119 agonist activity was also determined with a cell-based assay utilizing an HTRF (Homogeneous Time-Resolved Fluorescence) cAMP detection kit (cAMP dynamic 2 Assay Kit; Cis Bio cat #62AM4PEC) that measures cAMP levels in the cell. The method is a competitive immunoassay between native cAMP produced by the cells and the cAMP labeled with the dye d2. The tracer binding is visualized by a Mab anti-cAMP labeled with Cryptate. The specific signal (i.e. energy transfer) is inversely proportional to the concentration of cAMP in either standard or sample.
Specifically, hGPR119 HEK-CRE beta-lactamase cells (Invitrogen 2.5×10^7/mL; the same cell line used in the beta-lactamase assay described above) are removed from cryopreservation and diluted in growth medium (Dulbecco's modified Eagle medium high glucose (DMEM; Gibco Cat # 11995-065), 1% charcoal dextran treated fetal bovine serum (CD serum; HyClone Cat # SH30068.03), 1×MEM Nonessential amino acids (Gibco Cat # 15630-080) and 25 mM HEPES pH 7.0 (Gibco Cat # 15630-080)). The cell concentration was adjusted to 1.5×10^5 cells/mL and 30 mLs of this suspension was added to a T-175 flask and incubated at 37 degrees Celsius in a humidified environment in 5% carbon dioxide. After 16 hours (overnight), the cells were removed from the T-175 flask (by rapping the side of the flask), centrifuged at 800×g and then re-suspended in assay medium (1×HBSS+CaCl2+MgCl2 (Gibco Cat # 14025-092) and 25 mM HEPES pH 7.0 (Gibco Cat # 15630-080)). The cell concentration was adjusted to 6.25×10^5 cells/mL with assay medium and 8 μl of this cell suspension (5000 cells) was added to each well of a white Greiner 384-well, low-volume assay plate (VWR cat #82051-458).
Varying concentrations of each compound to be tested were diluted in assay buffer containing 3-isobutyl-1-methylxanthin (IBMX; Sigma cat #15879) and added to the assay plate wells in a volume of 2 microL (final IBMX concentration was 400 microM and final DMSO concentration was 0.58%). Following 30 minutes incubation at room temperature, 5 microL of labeled d2 cAMP and 5 microL of anti-cAMP antibody (both diluted 1:20 in cell lysis buffer; as described in the manufacturers assay protocol) were added to each well of the assay plate. The plates were then incubated at room temperature and after 60 minutes, changes in the HTRF signal were read with an Envision 2104 multilabel plate reader using excitation of 330 nm and emissions of 615 and 665 nm. Raw data were converted to nM cAMP by interpolation from a cAMP standard curve (as described in the manufacturer's assay protocol) and EC50 determinations were made from an agonist-response curves analyzed with a curve fitting program using a 4-parameter logistic dose response equation.

[3] = molecular target: T1, human GPR119; experiment: β-Lactamase reporter functional assay (hGPR119 HEK293-CRE beta-lactamase cells); set-up: host or cells: HEK293-CRE beta-lactamase; Emax: dose or concentration left out as unconfirmed; details: for EC50: hGPR119 HEK293-CRE beta-lactamase cells, 16 h incubation, each line a separate determination, read-out: Human B-lactamase Functional EC50; for Emax / Intrinsic Activity (Human B-lactamase): percent of maximal activity relative to standard GPR119 agonist at 10 micromolar; for Emax: read-out: Intrinsic Activity (Human B-lactamase)
Procedure: The assay for GPR119 agonists utilizes a cell-based (hGPR119 HEK293-CRE beta-lactamase) reporter construct where agonist activation of human GPR119 is coupled to beta-lactamase production via a cyclic AMP response element (CRE). GPR119 activity is then measured utilizing a FRET-enabled beta-lactamase substrate, CCF4-AM (Live Blazer FRET-B/G Loading kit, Invitrogen cat #K1027). Specifically, hGPR119-HEK-CRE-beta-lactamase cells (Invitrogen 2.5×10^7/mL) were removed from liquid nitrogen storage, and diluted in plating medium (Dulbecco's modified Eagle medium high glucose (DMEM; Gibco Cat # 11995-065), 10% heat inactivated fetal bovine serum (HIFBS; Sigma Cat # F4135), 1×MEM Nonessential amino acids (Gibco Cat # 15630-080), 25 mM HEPES pH 7.0 (Gibco Cat # 15630-080), 200 nM potassium clavulanate (Sigma Cat # P3494). The cell concentration was adjusted using cell plating medium and 50 microL of this cell suspension ([…]) was added into each well of a black, clear bottom, poly-d-lysine coated 384-well plate (Greiner Bio-One cat# 781946) and incubated at 37 degrees Celsius in a humidified environment containing 5% carbon dioxide. After 4 hours the plating medium was removed and replaced with 40 microL of assay medium (Assay medium is plating medium without potassium clavulanate and HIFBS). Varying concentrations of each compound to be tested was then added in a volume of 10 microL (final DMSO ≦0.5%) and the cells were incubated for 16 hours at 37 degrees Celsius in a humidified environment containing 5% carbon dioxide. Plates were removed from the incubator and allowed to equilibrate to room temperature for approximately 15 minutes. 10 microL of 6×CCF4/AM working dye solution (prepared according to instructions in the Live Blazer FRET-B/G Loading kit, Invitrogen cat #K1027) was added per well and incubated at room temperature for 2 hours in the dark. Fluorescence was measured on an EnVision fluorimetric plate reader, excitation 405 nm, emission 460 nm/535 nm. EC50 determinations were made from agonist-response curves analyzed with a curve fitting program using a 4-parameter logistic dose-response equation.

[4] = percent of maximal activity relative to standard GPR119 agonist at 10 micromolar

Which results are given for `Cc1c(O[C@@H]2[C@@H]3COC[C@H]2CN(C(=O)OC2(C)CC2)C3)ncnc1N1CCc2ncccc21` [Example 28, 1-Methylcyclopropyl (9-syn)-9-{[6-(2,3-dihydro-1H-pyrrolo[3,2-b]pyridin-1-yl)-5-methylpyrimidin-4-yl]oxy}-3-oxa-7-azabicyclo[3.3.1]nonane-7-carboxylate]?
Emax [1, 4]: 32.1%; Intrinsic Activity (Human cAMP) [2]: 37% and 36%; Emax [2]: 41.9%

How did the EC50 ([1]; U2OS hGPR119 β-arrestin cells, 90 min, each line a separate determination, read-out: Human B-arrestin Functional EC50) turn out when `Cc1c(O[C@@H]2CCN(C(=O)OC3(C)CC3)C[C@@H]2F)ncnc1N1CCc2ncccc21` [Example 18, 1-Methylcyclopropyl (3S,4R)-4-{[6-(2,3-dihydro-1H-pyrrolo[3,2-b]pyridin-1-yl)-5-methylpyrimidin-4-yl]oxy}-3-fluoropiperidine-1-carboxylate] was run?
Its EC50 is 2.57 nM and 19 nM and 4.94 nM and 20.6 nM.

And the Emax [1, 4]?
The Emax was 75.8%.

What about the “Intrinsic Activity (Human B-arrestin)” value [1, 4] of the same compound?
The value was 73.7% and 81% and 78.9%.

What about the EC50 [2] of the same compound?
Its EC50 is 18.8 nM and 18.4 nM and 15.9 nM and 12.7 nM and 14.6 nM.

What about the “Intrinsic Activity (Human cAMP)” value [2] of the same compound?
Its value is 71.2% and 49.2% and 54.5% and 61.7% and 57.7%.

With `CC(C)OC(=O)N1C[C@H]2COC[C@@H](C1)[C@@H]2Oc1ncnc(N2CCc3cc(S(C)(=O)=O)ccc32)c1C#N` [Example 4] as the compound, how does the EC50 [3] read?
The EC50 was 9.16 nM.

And the Emax [3]?
Its Emax is 87.9%.

And the “Intrinsic Activity (Human cAMP)” value [2]?
Its value is 36% and 35.3%.

And the Emax [2]?
Its Emax is 36.2%.

Which EC50 [3] does the source give for `CC(C)OC(=O)N1C[C@H]2COC[C@@H](C1)[C@H]2Oc1ncnc(N2CCc3cc(S(C)(=O)=O)ccc32)c1C#N` [Example 5] here?
Its EC50 is 11.5 nM and 12.5 nM.

And the “Intrinsic Activity (Human B-lactamase)” value [3]?
Its value is 100%.

What about the Emax [3] of the same compound?
Its Emax is 98.1%.

And the EC50 [2]?
The EC50 was 357 nM and 602 nM and 1750 nM and 1330 nM and 1800 nM and 3140 nM.

For `Cc1c(O[C@H]2[C@@H]3COC[C@H]2CN(C(=O)OC(C)C)C3)ncnc1N1CCc2cc(S(C)(=O)=O)ccc21` [Example 24, Isopropyl (9-anti)-9-({5-methyl-6-[5-(methylsulfonyl)-2,3-d hydro-1H-indol-1-yl]pyrimidin-4-yl}oxy)-3-oxa-7-azabicyclo[3.3.1]nonane-7-carboxylate], which EC50 [3] is on record?
Its EC50 is 111 nM.

What about the Emax [3] of the same compound?
The Emax was 100%.

With `CC1(OC(=O)N2CC[C@H](Oc3cc(N4CCc5nc(C(N)=O)ccc54)ncn3)[C@H](F)C2)CC1` (racemic) [Example 32, 1-Methylcyclopropyl (3R,4S)-4-{[6-(5-carbamoyl-2,3-dihydro-1H-pyrrolo[3,2-b]pyridin-1-yl)pyrimidin-4-yl]oxy}-3-fluoropiperidine-1-carboxylate] as the compound, how does the EC50 [2] read?
Its EC50 is 273 nM.

And the Emax [2]?
The Emax was 147%.

For `CC(C)OC(=O)N1C[C@H]2COC[C@@H](C1)[C@@H]2Oc1cc(N2CCc3cc(S(C)(=O)=O)ccc32)ncn1` [Example 2, Isopropyl 9-syn-({6-[5-(methylsulfonyl)-2,3-dihydro-1H-indol-1-yl]pyrimidin-4-yl}oxy)-3-oxa-7-azabicyclo[3.3.1]nonane-7-carboxylate], which EC50 [3] is on record?
The EC50 was 343 nM and 51.3 nM and 38.2 nM.

What about the “Intrinsic Activity (Human B-lactamase)” value [3] of the same compound?
The value was 106%.

And the Emax [3]?
Its Emax is 98%.

Which results are given for `CC(C)OC(=O)N1CCC(Oc2cc(N3CCc4cc(S(C)(=O)=O)cnc43)ncn2)CC1` [Example 14, Isopropyl 4-({6-[5-(methylsulfonyl)-2,3-dihydro-1H-pyrrolo[2,3-b]pyridin-1-yl]pyrimidin-4-yl}oxy)piperidine-1-carboxylate]?
EC50 [3]: 7270 nM; Emax [3]: 98.1%; EC50 [2]: > 10000 nM

Which results are given for `CN(C)C(=O)c1ccc2c(n1)CCN2c1cc(OC2CCN(C(=O)OC3(C)CC3)CC2)ncn1` [Example 33, 1-Methylcyclopropyl 4-({6-[5-(dimethylcarbamoyl)-2,3-dihydro-1H-pyrrolo[3,2-b]pyridin-1-yl]pyrimidin-4-yl}oxy)piperidine-1-carboxylate]?
EC50 [2]: 1550 nM; Emax [2]: 154%

Reference: US20100285145A1, “GPR 119 MODULATORS” (PFIZER INC, priority 2009, published 2010)
